In PubChem BioAssay AID248 (DTP/NCI, 2004):
Toxic doses and inconclusive results are not listed. No stated cut-off is given here; in the data, active means T/C of 150% or more; inactive means T/C below 125%.

Test system: L1210 leukemia ip in BDF1 mice, survival T/C
Test: NCI In Vivo Anticancer Drug Screen. Data for tumor model L1210 Leukemia (intraperitoneal) in B6D2F1 (BDF1) mice
Settings: endpoint: mean survival time, higher = longer survival
How it was run: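 Survival endpoint. Drug-treated group vs vehicle group, expressed as T divided by C. Tumor passaged by transplantation.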

[1] = dose: 100.0 mg/kg/injection, schedule: Q01DX009 (ip), vehicle: saline with Tween-80
[2] = dose: 200.0 mg/kg/injection, schedule: Q01DX009 (ip), vehicle: saline with Tween-80
[3] = dose: 100.0 mg/kg/injection, schedule: Q04DX003 (ip), vehicle: saline with Tween-80
[4] = dose: 200.0 mg/kg/injection, schedule: Q04DX003 (ip), vehicle: saline with Tween-80
[5] = dose: 400.0 mg/kg/injection, schedule: Q04DX003 (ip), vehicle: saline with Tween-80
[6] = dose: 100.0 mg/kg/injection, schedule: Q04DX003 (ip), vehicle: Klucel (hydroxypropylcellulose) (HPC)
[7] = dose: 200.0 mg/kg/injection, schedule: Q04DX003 (ip), vehicle: Klucel (hydroxypropylcellulose) (HPC)
[8] = dose: 400.0 mg/kg/injection, schedule: Q04DX003 (ip), vehicle: Klucel (hydroxypropylcellulose) (HPC)
[9] = dose: 50.0 mg/kg/injection, schedule: Q01DX009 (ip), vehicle: saline
[10] = dose: 100.0 mg/kg/injection, schedule: Q01DX009 (ip), vehicle: saline
[11] = dose: 200.0 mg/kg/injection, schedule: Q01DX009 (ip), vehicle: saline
[12] = dose: 100.0 mg/kg/injection, schedule: Q01DX009 (ip), vehicle: Klucel (hydroxypropylcellulose) (HPC)
[13] = dose: 200.0 mg/kg/injection, schedule: Q01DX009 (ip), vehicle: Klucel (hydroxypropylcellulose) (HPC)
[14] = dose: 100.0 mg/kg/injection, schedule: Q01DX001 (ip), vehicle: other
[15] = dose: 200.0 mg/kg/injection, schedule: Q01DX001 (ip), vehicle: other

Measured: T/C

CS(=O)(=O)OCCCN(CCCOS(C)(=O)=O)c1ccc(C=Nc2ccc(-c3csc(COc4ccc(Br)cc4)n3)cc2)cc1
inactive: [1] 95 % of control | [2] 95 % of control

CCCCCCCC[n+]1cccc(C(N)=O)c1
inactive: [3] 98 % of control | [4] 89 % of control

CCCCCCC(C)O[Si](C)c1ccc(C)cc1 (stereo not drawn)
inactive: [1] 103 % of control | [3] 113 % of control | [2] 90 % of control | [4] 97 % of control | dose: 400.0 mg/kg/injection, schedule: Q01DX009 (ip), vehicle: saline with Tween-80 97 % of control | [5] 87 % of control

COC(=O)C1(C(=O)OC)C2CCCCC21 (stereo not drawn)
inactive: dose: 100.0 mg/kg/injection, schedule: Q01DX001 (ip), vehicle: Klucel (hydroxypropylcellulose) (HPC) 90 % of control | [6] 96 % of control | dose: 200.0 mg/kg/injection, schedule: Q01DX001 (ip), vehicle: Klucel (hydroxypropylcellulose) (HPC) 103 % of control | [7] 104 % of control | dose: 400.0 mg/kg/injection, schedule: Q01DX001 (ip), vehicle: Klucel (hydroxypropylcellulose) (HPC) 98 % of control | [8] 98 % of control

C=CCNCC1OC(OC)C2OC(C)(C)OC12 (stereo not drawn)
inactive: [9] 101 % of control | [10] 104 % of control | dose: 100.0 mg/kg/injection, schedule: Q04DX003 (ip), vehicle: saline 109 % of control | [11] 104 % of control | dose: 200.0 mg/kg/injection, schedule: Q04DX003 (ip), vehicle: saline 102 % of control

Cc1ccc(C(=O)CCC(=O)O)c(C)c1
inactive: [3] 100 % of control | [4] 98 % of control | [5] 98 % of control

Cc1ccc(Nc2cc(=S)nc(N)[nH]2)cc1
inactive: dose: 100.0 mg/kg/injection, schedule: Q01DX Z (ip), vehicle: methylcellulose (MC) 93 % of control | dose: 200.0 mg/kg/injection, schedule: Q01DX Z (ip), vehicle: methylcellulose (MC) 86 % of control

C[N+]1(CCC(c2ccccc2)c2ccccc2)CCCCC1
inactive: dose: 12.5 mg/kg/injection, schedule: Q01DX009 (ip), vehicle: saline 97 % of control | dose: 25.0 mg/kg/injection, schedule: Q01DX009 (ip), vehicle: saline 96 % of control | [9] 96 % of control

Cc1c(Cl)cccc1NC(=O)c1ccccc1C(=O)O
inactive: [12] 98 % of control | [6] 96 % of control | [13] 104 % of control | [7] 100 % of control | dose: 400.0 mg/kg/injection, schedule: Q01DX009 (ip), vehicle: Klucel (hydroxypropylcellulose) (HPC) 102 % of control | [8] 102 % of control

COc1cc(C)c2cc(C)cc(C)c2n1
inactive: [14] 95 % of control | [15] 101 % of control | dose: 400.0 mg/kg/injection, schedule: Q01DX001 (ip), vehicle: other 93 % of control

O=[N+]([O-])c1ccc(N/N=C\C2CC=C3c4ccccc4CCC3C2/C=N\Nc2ccc([N+](=O)[O-])cc2[N+](=O)[O-])c([N+](=O)[O-])c1 (stereo not drawn)
inactive: dose: 50.0 mg/kg/injection, schedule: Q01DX001 (ip), vehicle: carboxymethylcellulose (CMC) 89 % of control | dose: 100.0 mg/kg/injection, schedule: Q01DX001 (ip), vehicle: carboxymethylcellulose (CMC) 93 % of control | dose: 200.0 mg/kg/injection, schedule: Q01DX001 (ip), vehicle: carboxymethylcellulose (CMC) 103 % of control | dose: 400.0 mg/kg/injection, schedule: Q01DX001 (ip), vehicle: carboxymethylcellulose (CMC) 108 % of control

CCOc1ccccc1C(N)=O
inactive: [10] 96 % of control | dose: 100.0 mg/kg/injection, schedule: Q04DX003 (ip), vehicle: other 96 % of control | [11] 107 % of control | dose: 200.0 mg/kg/injection, schedule: Q04DX003 (ip), vehicle: other 104 % of control | dose: 400.0 mg/kg/injection, schedule: Q01DX009 (ip), vehicle: saline 102 % of control | dose: 400.0 mg/kg/injection, schedule: Q04DX003 (ip), vehicle: other 105 % of control

CC(CO)(CO)N1C(=O)c2cccc3cc([N+](=O)[O-])cc(c23)C1=O
inactive: [12] 112 % of control | [13] 107 % of control

Clc1nn2cnnc2c2ccccc12
inactive: dose: 20.0 mg/kg/injection, schedule: Q04DX003 (ip), vehicle: saline 110 % of control

CN(N=Nc1ccc(C(N)=O)cc1)C1CCCCC1
inactive: [14] 91 % of control | [15] 107 % of control

O=C(CCN1CCOCC1)c1ccccc1
inactive: dose: 75.0 mg/kg/injection, schedule: Q01DX001 (ip), vehicle: saline 94 % of control | dose: 150.0 mg/kg/injection, schedule: Q01DX001 (ip), vehicle: saline 89 % of control | dose: 300.0 mg/kg/injection, schedule: Q01DX001 (ip), vehicle: saline 92 % of control

O=C(NCCCCc1ccccc1)c1ccc([N+](=O)[O-])s1
inactive: dose: 50.0 mg/kg/injection, schedule: Q01DX005 (ip), vehicle: water 94 % of control | dose: 100.0 mg/kg/injection, schedule: Q01DX005 (ip), vehicle: water 87 % of control | dose: 200.0 mg/kg/injection, schedule: Q01DX005 (ip), vehicle: water 94 % of control | dose: 400.0 mg/kg/injection, schedule: Q01DX005 (ip), vehicle: water 94 % of control

O=C(OC(c1ccccc1)c1ccccc1)C(=O)c1ccccc1
inactive: [3] 92 % of control | [4] 89 % of control | [5] 92 % of control

CC1CP(=O)(Cc2ccccc2)C(C)(c2ccccc2)C1=O (stereo not drawn)
inactive: [6] 93 % of control | [7] 100 % of control | [8] 100 % of control

CN(CCC#N)C1=CCCC1
inactive: dose: 100.0 mg/kg/injection, schedule: Q04DX003 (ip), vehicle: saline sonified 100 % of control | dose: 200.0 mg/kg/injection, schedule: Q04DX003 (ip), vehicle: saline sonified 111 % of control | dose: 400.0 mg/kg/injection, schedule: Q04DX003 (ip), vehicle: saline sonified 96 % of control

S=c1[nH][nH]c(=S)s1
inactive: dose: 12.5 mg/kg/injection, schedule: Q01DX009 (ip), vehicle: Klucel (hydroxypropylcellulose) (HPC) 92 % of control | dose: 25.0 mg/kg/injection, schedule: Q01DX009 (ip), vehicle: Klucel (hydroxypropylcellulose) (HPC) 95 % of control | dose: 50.0 mg/kg/injection, schedule: Q01DX009 (ip), vehicle: Klucel (hydroxypropylcellulose) (HPC) 90 % of control | [9] 97 % of control | [12] 101 % of control | [10] 97 % of control

OC1C=NC(N2CCN(c3ccccc3)CC2)=Cc2ccccc21 (stereo not drawn)
inactive: [3] 97 % of control | [4] 95 % of control | [5] 92 % of control
